How the values were obtained:
Pfeiffer cells = experiment: CTG cell viability assay (CellTiter-Glo); assay type: cell-based; details: Homo sapiens, 240 h; Pfeiffer cells, 10 days with compound, CellTiter-Glo; read-out: Cell Proliferation IC50
Method: 1,000 cells were plated into each well of 96-well Corning CellBing cell culture plates and incubated overnight at 37° C. in a humidified CO2 incubator. […] The cell culture plates were then incubated for 10 more days. CTG cell viability assay was performed on the cell culture samples by using CellTiter-Glo® Luminescent Cell Viability Assay Kit (Promega).

H3K27me3 in G401 cells = experiment: H3K27me3 AlphaLISA assay in G401 cells; assay type: cell-based; details: Homo sapiens, G-401, 144 h, 6 days with compound
Method: G401 cells (ATCC catalog # CRL-1441) were maintained in McCoy's 5a medium (ATCC) supplemented with 10% heat-inactivated FBS (HyClone) at 37° C. in a humidified CO2 incubator. OCILY19 cells (DSMZ catalog #ACC 528) were maintained in IMDM (Invitrogen) supplemented with 10% human serum (Sigma) at 37° C. in a humidified CO2 incubator. 5,000 cells were plated into each well of 96-well Corning CellBing cell culture plates and incubated overnight at 37° C. in a humidified CO2 incubator. […] The cell culture plates were then incubated for 6 more days. H3K27me3 AlphaLISA assay was performed on the cell culture samples by using AlphaLISAR® H3K27me3 Cellular Detection Kit (PerkinElmer) and 96-well white half-area plates (PerkinElmer).

EED = EED (Homo sapiens, UniProt O75530); experiment: EED TR-FRET Binding Assay (modified LanthaScreen competition assay)
Method in brief: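 Competition binding in a modified LanthaScreen format, in 20 mM Tris-HCl pH 7.5, 200 mM NaCl, 0.01% Tween-20, 10 uM DTT and 0.05% BSA. Reactions ran 1 hour at 25° C before TR-FRET detection.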

[1] = system: H3K27me3 in OCILY19 cells; experiment: H3K27me3 AlphaLISA assay in OCILY19 cells; assay type: cell-based; details: Homo sapiens, OCI-LY19, 144 h, 6 days with compound, read-out: OCILY-19 IC50
Method: 5,000 cells were plated into each well of 96-well Corning CellBing cell culture plates and incubated overnight at 37° C. in a humidified CO2 incubator. […] The cell culture plates were then incubated for 6 more days. H3K27me3 AlphaLISA assay was performed on the cell culture samples by using AlphaLISAR® H3K27me3 Cellular Detection Kit (PerkinElmer) and 96-well white half-area plates (PerkinElmer).

Sequence of EED (O75530 whole entry): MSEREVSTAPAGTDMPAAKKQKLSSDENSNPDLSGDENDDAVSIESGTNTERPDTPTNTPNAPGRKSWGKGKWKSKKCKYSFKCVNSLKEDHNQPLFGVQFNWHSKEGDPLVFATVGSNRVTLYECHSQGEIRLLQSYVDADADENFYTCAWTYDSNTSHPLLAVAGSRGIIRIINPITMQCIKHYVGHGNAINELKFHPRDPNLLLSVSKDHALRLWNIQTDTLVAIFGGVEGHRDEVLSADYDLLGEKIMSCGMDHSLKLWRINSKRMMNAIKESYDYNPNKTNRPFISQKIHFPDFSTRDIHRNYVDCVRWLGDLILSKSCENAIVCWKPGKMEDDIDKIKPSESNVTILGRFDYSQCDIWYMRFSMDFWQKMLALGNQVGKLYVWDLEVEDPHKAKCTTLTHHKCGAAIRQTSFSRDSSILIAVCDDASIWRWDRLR

IC50 (H3K27me3 in G401 cells) [nM] | IC50 (EED) [nM] | IC50 [1] [nM] | Compound | IC50 (Pfeiffer cells) [nM]
34.4 | 0.782 | 69.5 | CN(C)[C@H]1CN(C2CCc3cccc(F)c32)C[C@@H]1c1cn(C)c2c(C(=O)N3CC(O)C3)cccc12 (mixture of isomers) [Example 106, rac-{3-[(3S,4R)-4-(dimethylamino)-1-(7-fluoro-2,3-dihydro-1H-inden-1-yl)pyrrolidin-3-yl]-1-methyl-1H-indol-7-yl}(3-hydroxyazetidin-1-yl)methanone] | 74.9
57.3 | 0.406 | 158 | CN(C)C(=O)N1CCN(c2cccc3c([C@H]4CN(C5CCc6cccc(F)c65)C[C@@H]4N(C)C)cn(C)c23)CC1 (mixture of isomers) [Example 131, rac-4-{3-[(3S,4R)-4-(dimethylamino)-1-(7-fluoro-2,3-dihydro-1H-inden-1-yl)pyrrolidin-3-yl]-1-methyl-1H-indol-7-yl}-N,N-dimethylpiperazine-1-carboxamide] | 122
291 | 0.494 | 461 | CN(C)[C@H]1CN(C2CCc3cccc(F)c32)C[C@@H]1c1cn(C)c2ncccc12 (mixture of isomers) [Example 164, rac-(3R,4S)-1-(7-fluoro-2,3-dihydro-1H-inden-1-yl)-N,N-dimethyl-4-(1-methyl-1H-pyrrolo[2,3-b]pyridin-3-yl)pyrrolidin-3-amine] | 148
108 | 1.45 | 719 | CN(C)[C@H]1CN(C2CCc3cccc(F)c32)C[C@@H]1c1cn(C)c2c(C(=O)N3CCN(S(=O)(=O)c4cncn4C)CC3)cccc12 (mixture of isomers) [Example 135, rac-{3-[(3S,4R)-4-(dimethylamino)-1-(7-fluoro-2,3-dihydro-1H-inden-1-yl)pyrrolidin-3-yl]-1-methyl-1H-indol-7-yl}[4-(1-methyl-1H-imidazole-5-sulfonyl)piperazin-1-yl]methanone] | 115
576 | 1.75 | 306 | CN(C)[C@@H]1CN(C2CCc3cccc(F)c32)C[C@H]1c1ccc2c(c1)OCO2 (mixture of isomers) [Example 65, rac-(3S,4R)-4-(2H-1,3-benzodioxol-5-yl)-1-(7-fluoro-2,3-dihydro-1H-inden-1-yl)-N,N-dimethylpyrrolidin-3-amine] | 948
86.4 | 1.56 | 207 | CN(C)[C@H]1CN(C2CCc3cccc(F)c32)C[C@@H]1c1cn(C)c2c(C(=O)N3CCN(S(=O)(=O)N(C)C)CC3)cccc12 (mixture of isomers) [Example 124, rac-4-{3-[(3S,4R)-4-(dimethylamino)-1-(7-fluoro-2,3-dihydro-1H-inden-1-yl)pyrrolidin-3-yl]-1-methyl-1H-indole-7-carbonyl}-N,N-dimethylpiperazine-1-sulfonamide] | 349
636 | 2.58 | 1140 | CN(C)[C@H]1CN(C2CCc3cccc(F)c32)C[C@@H]1C1CCN(c2cccnc2)CC1 (mixture of isomers) [Example 149, rac-(3R,4S)-1-(7-fluoro-2,3-dihydro-1H-inden-1-yl)-N,N-dimethyl-4-[1-(pyridin-3-yl)piperidin-4-yl]pyrrolidin-3-amine] | 970
799 | 0.679 | 3280 | CN(C)[C@H]1CN(C2CCc3cccc(F)c32)C[C@@H]1c1cn(C)c2c(C(=O)N3C[C@H](O)[C@@H](O)C3)cccc12 (mixture of isomers) [Example 113, rac-[(3S,4S)-3,4-dihydroxypyrrolidin-1-yl]{3-[(3S,4R)-4-(dimethylamino)-1-(7-fluoro-2,3-dihydro-1H-inden-1-yl)pyrrolidin-3-yl]-1-methyl-1H-indol-7-yl}methanone] | 399
39.9 | 0.923 | 132 | CNC(=O)Cn1cc(-c2ccc([C@H]3CN(C4CCc5cccc(F)c54)C[C@@H]3N(C)C)cc2)cn1 (mixture of isomers) [Example 72, rac-2-(4-{4-[(3S,4R)-4-(dimethylamino)-1-(7-fluoro-2,3-dihydro-1H-inden-1-yl)pyrrolidin-3-yl]phenyl}-1H-pyrazol-1-yl)-N-methylacetamide] | 121
40.7 | 0.335 | 101 | CN(C)[C@H]1CN(C2CCc3cccc(F)c32)C[C@@H]1c1cn(C)c2c(C(=O)N3CC(F)C3)cccc12 (stereo partly drawn) [Example 102, {3-[(3S,4R)-4-(dimethylamino)-1-(7-fluoro-2,3-dihydro-1H-inden-1-yl)pyrrolidin-3-yl]-1-methyl-1H-indol-7-yl}(3-fluoroazetidin-1-yl)methanone] | 73.6
190 | 1.06 | 152 | CN(C)[C@@H]1CN(C2CCc3cccc(F)c32)C[C@H]1c1ccc(N2CCN(C(=O)CS(N)(=O)=O)CC2)nc1 (mixture of isomers) [Example 160, rac-2-(4-{5-[(3R,4S)-4-(dimethylamino)-1-(7-fluoro-2,3-dihydro-1H-inden-1-yl)pyrrolidin-3-yl]pyridin-2-yl}piperazin-1-yl)-2-oxoethane-1-sulfonamide] | 301
227 | 1.4 | 205 | CN(C)[C@@H]1CN(C2CCc3cccc(F)c32)C[C@H]1c1ccc(N2CCN(C(=O)CS(C)(=O)=O)CC2)nc1 (mixture of isomers) [Example 157, rac-1-(4-{5-[(3R,4S)-4-(dimethylamino)-1-(7-fluoro-2,3-dihydro-1H-inden-1-yl)pyrrolidin-3-yl]pyridin-2-yl}piperazin-1-yl)-2-(methanesulfonyl)ethan-1-one] | 354

Compound | IC50 (H3K27me3 in G401 cells) [nM] | IC50 (EED) [nM] | IC50 [1] [nM] | IC50 (Pfeiffer cells) [nM]
CN(C)[C@H]1CN(C2CCc3cccc(F)c32)C[C@@H]1C1CCN(c2ccc(C(N)=O)cn2)CC1 (mixture of isomers) [Example 167, rac-6-{4-[(3S,4R)-4-(dimethylamino)-1-(7-fluoro-2,3-dihydro-1H-inden-1-yl)pyrrolidin-3-yl]piperidin-1-yl}pyridine-3-carboxamide] | 131 | 0.399 | 267 | 143

From patent US9957274B2, “Indane inhibitors of EED and methods of their use” (AbbVie Inc., priority 2016, dated 2018)
